How the values were obtained:
Format in all cases: functional
Rattus norvegicus [1] = test: Anti-inflammatory activity in carrageenan-induced rat foot paw edema model assessed as reduction in paw volume at 20 mg/kg dosed 30 mins before carrageenan injection and measured 5 hrs after carrageenan challenge
Rattus norvegicus [2] = test: Anti-inflammatory activity in carrageenan-induced rat foot paw edema model assessed as reduction in paw volume at 20 mg/kg dosed 30 mins before carrageenan injection and measured 1 hr after carrageenan challenge
Rattus norvegicus [3] = test: Anti-inflammatory activity in carrageenan-induced rat foot paw edema model assessed as reduction in paw volume at 20 mg/kg dosed 30 mins before carrageenan injection and measured 3 hrs after carrageenan challenge

Row | SMILES | inhibition in vivo at 20 mg/kg (Rattus norvegicus [1]) [%] | inhibition in vivo at 20 mg/kg (Rattus norvegicus [2]) [%] | inhibition in vivo at 20 mg/kg (Rattus norvegicus [3]) [%]
1 | CCNCc1ccc(-c2cc(C(F)(F)F)nn2-c2ccc(S(N)(=O)=O)cc2)cc1 | 39 | 53 | 71
2 | NS(=O)(=O)c1ccc(-n2nc(C(F)(F)F)cc2-c2ccc(CN3CCNCC3)cc2)cc1 | 35 | 58 | 70
3 | CNCc1ccc(-c2cc(C(F)(F)F)nn2-c2ccc(S(C)(=O)=O)cc2)cc1 | 67 | 72 | 89
4 | CCNCc1ccc(-c2cc(C(F)(F)F)nn2-c2ccc(S(C)(=O)=O)cc2)cc1 | 66 | 66 | 72
5 | Cc1ccc(-c2cc(C(F)(F)F)nn2-c2ccc(S(N)(=O)=O)cc2)cc1 [CELECOXIB] | 48 | 40 | 80
6 | CS(=O)(=O)c1ccc(-n2nc(C(F)(F)F)cc2-c2ccc(CN3CCNCC3)cc2)cc1 | 66 | 67 | 73
7 | CNCc1ccc(-c2cc(C(F)(F)F)nn2-c2ccc(S(N)(=O)=O)cc2)cc1 | 57 | 54 | 69
8 | CS(=O)(=O)c1ccc(-n2nc(C(F)(F)F)cc2-c2ccc(CN3CCN(N=O)CC3)cc2)cc1 | 29 | 19 | 43
9 | CCN(Cc1ccc(-c2cc(C(F)(F)F)nn2-c2ccc(S(C)(=O)=O)cc2)cc1)N=O | 25 | 24 | 39
